Assay results reported in BindingDB's records for doi:10.1016/j.bmcl.2012.11.036 (University of Namur, 2012).

Molecular target: Indoleamine 2,3-dioxygenase 1 (Homo sapiens, UniProt P14902)
Assay: Inhibition of human recombinant IDO1 using L-Trp as substrate assessed as kynurenine level after 30 mins

Chain of Indoleamine 2,3-dioxygenase 1 (P14902 whole entry): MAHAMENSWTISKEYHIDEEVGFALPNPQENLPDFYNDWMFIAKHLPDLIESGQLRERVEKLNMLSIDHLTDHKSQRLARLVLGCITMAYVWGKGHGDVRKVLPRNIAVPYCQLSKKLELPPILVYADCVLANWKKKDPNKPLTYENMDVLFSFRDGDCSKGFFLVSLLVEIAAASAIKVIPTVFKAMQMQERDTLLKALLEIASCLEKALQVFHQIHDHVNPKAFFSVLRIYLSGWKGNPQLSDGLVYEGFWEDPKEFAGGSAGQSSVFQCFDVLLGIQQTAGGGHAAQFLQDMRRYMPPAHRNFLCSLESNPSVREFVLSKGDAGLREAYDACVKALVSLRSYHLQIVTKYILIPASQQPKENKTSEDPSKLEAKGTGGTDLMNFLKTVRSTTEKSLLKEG

Row | Compound | IC50 [µM]
1 | COc1ccc(C2CN=C3C(=O)c4ccn(S(=O)(=O)c5ccc(C)cc5)c4C(=O)C32)cc1 (configuration not stated) | 5.6
2 | COc1ccc(C2CN=C3C(=O)c4c(CCN)cn(S(=O)(=O)c5ccc(C)cc5)c4C(=O)C32)cc1 (configuration not stated) | 5.6
